Assay results reported in the supplement of paper PMC4858399.
Counter-ions that a name gives are not always drawn.

Tests used:
Details in all cases: exposure time 48 h
[1] = test system: Caenorhabditis elegans N2; assay: AC50 for larval growth inhibition (Hill fit); higher = less potent
How it was run: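 C. elegans N2 L1 larvae, synchronised and plated at 50 per well in 96-well plates, were exposed for 48 h at 20°C to 0.5–200 µM chemical in K-medium with killed OP50 and 1% DMSO. Log-transformed extinction from a COPAS Biosort served as worm size, averaged per well. Wells containing at least 10 worms entered the fit. A constrained Hill fit by weighted genetic-algorithm regression yielded the AC50, censored when out of range.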

[2] = test system: Caenorhabditis elegans N2; assay: lowest effective concentration for larval growth inhibition (size below effect threshold); higher = less potent
How it was run: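 L1 larvae of C. elegans N2 (50 per 96-well) were grown in K-medium with killed bacteria and 1% DMSO, with the chemical at 0.5, 1, 5, 10, 50, 100 or 200 µM, for 48 h at 20°C. Per-worm extinction from the Biosort stood for size and was log-transformed into well means. For each chemical, the lowest effective concentration is the first dose where plate-adjusted mean size falls under the threshold and stays under it at the higher doses, using a threshold of 5.665.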

[3] = test system: Caenorhabditis elegans N2; assay: mean nematode size ln(EXT) after 48 h, plate-adjusted (DMSO control set to 6) (ln(EXT), control-adjusted); higher = larger nematodes / less growth inhibition
How it was run: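 Chemical at 0.5–200 µM was tested on synchronised C. elegans N2 L1 larvae grown for 48 h at 20°C in K-medium with killed OP50 and 1% DMSO. Per-worm Biosort extinction, cleared of debris by a growth model, was natural-logged and averaged per well to give mean size. Plates were normalised by subtracting the vehicle control mean and adding 6.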

Row | Compound | AC50 for larval growth inhibition [1] | lowest effective concentration [2] | mean nematode size ln(EXT) (ln) ([3]; 0.5 µM) | mean nematode size ln(EXT) (ln) ([3]; 1 µM) | mean nematode size ln(EXT) (ln) ([3]; 5 µM) | mean nematode size ln(EXT) (ln) ([3]; 10 µM) | mean nematode size ln(EXT) (ln) ([3]; 50 µM) | mean nematode size ln(EXT) (ln) ([3]; 100 µM) | mean nematode size ln(EXT) (ln) ([3]; 200 µM)
1 | COP(=S)(OC)Oc1ccc(SC)c(C)c1 [Fenthion] | 34.4 µM | 1 µM | 5.69 | 5.64 | 5.43 | 5.36 | 5.09 | 5.11 | 4.92
2 | CN1CCN(c2ccccc2/C=C2\SCCN(c3ccc(Cl)c(Cl)c3)C2=O)CC1 [Elzasonan] | 62.7 µM | 10 µM | 5.89 | 5.8 | 5.84 | 5.58 | 4.76 | 4.27 | 3.67
3 | CC(C)(C)OOC(C)(C)CCC(C)(C)OOC(C)(C)C [2,5-Dimethyl-2,5-bis(tert-butylperoxy)hexane] | 185 µM | 200 µM | 5.81 | 5.83 | 5.81 | 5.79 | 5.78 | 5.79 | 4.23
4 | CSC1=N[C@@](C)(c2ccccc2)C(=O)N1Nc1ccccc1 [Fenamidone] | 105 µM | 200 µM | 5.9 | 5.9 | 5.86 | 5.96 | 6.02 | 5.83 | 5.41
5 | Clc1ccccc1C(c1ccccc1)(c1ccccc1)n1ccnc1 [Clotrimazole] | 18.8 µM | 5 µM | 5.8 | 5.74 | 5.4 | 4.95 | 3.89 | 3.9 | 3.23
6 | CCOC(=O)O[C@H](C)OC(=O)c1ccc2c(c1)cc(C(=O)NC1CCN(C(C)C)CC1)n2Cc1cc(-c2ccc(Cl)s2)on1 | 78.2 µM | 50 µM | 5.85 | 5.86 | 5.87 | 5.76 | 4.76 | 4.59 | 3.71
7 | CCOC(=O)c1ccc(C2CCC(NC[C@H](O)COc3ccc(O)c(NS(C)(=O)=O)c3)CC2)cc1 (some centres undefined) | > 200 µM | 100 µM | 5.91 | 5.88 | 5.77 | 5.77 | 5.7 | 5.57 | 5.48
8 | Nc1ccc2c(c1)C(=O)c1ccccc1C2=O [2-Aminoanthraquinone] | 53.9 µM | 100 µM | 6.17 | 5.82 | 5.77 | 5.81 | 5.75 | 4.42 | 5.14
9 | COC(=O)N(OC)c1ccccc1COc1ccn(-c2ccc(Cl)cc2)n1 [Pyraclostrobin] | 97.6 µM | 50 µM | 6 | 5.89 | 5.83 | 5.89 | 5.21 | 4.93 | 4.43
10 | C#CC(C)(C)NC(=O)c1cc(Cl)cc(Cl)c1 [Propyzamide] | > 200 µM | 200 µM | 5.98 | 5.91 | 5.98 | 6.01 | 5.92 | 5.91 | 5.63
11 | CC[C@H](C)C1O[C@]2(C=C[C@@H]1C)C[C@@H]1C[C@@H](C/C=C(\C)[C@@H](O[C@H]3C[C@H](OC)[C@@H](O[C@H]4C[C@H](OC)[C@H](NC)[C@H](C)O4)[C@H](C)O3)[C@@H](C)/C=C/C=C3\CO[C@@H]4[C@H](O)C(C)=C[C@@H](C(=O)O1)[C@]34O)O2 (some centres undefined) [Emamectin benzoate] | < 0.5 µM | ≤ 0.5 µM | 3.52 | 3.7 | 3.74 | 3.6 | 3.65 | 3.54 | 4.24
12 | CCN(CC)N=O [N-Nitrosodiethylamine] | > 200 µM | 200 µM | 5.96 | 5.9 | 5.89 | 5.87 | 5.77 | 5.75 | 5.66
13 | CCOc1ccc2[nH]cc(C(=O)NCc3ccccc3)c(=O)c2n1 | > 200 µM | 200 µM | 5.85 | 5.84 | 5.84 | 5.96 | 5.91 | 5.86 | 5.63
14 | CN(C)c1ccc(Cc2ccc(N(C)C)cc2)cc1 [4,4'-methylenebis(N,N-dimethylaniline)] | 66.3 µM | 100 µM | 5.92 | 5.8 | 5.81 | 5.86 | 5.74 | 5.17 | 5.04
15 | COc1cccc(C(=O)NN(C(=O)c2cc(C)cc(C)c2)C(C)(C)C)c1C [Methoxyfenozide] | 195 µM | 200 µM | 6.16 | 6.1 | 6.05 | 5.9 | 6 | 6.01 | 4.43
16 | CCOC(=O)C(O)(c1ccc(Cl)cc1)c1ccc(Cl)cc1 [Chlorobenzilate] | 39.4 µM | 10 µM | 6.05 | 5.97 | 5.87 | 5.64 | 4.21 | 4.08 | 3.11
17 | ClC1=C(Cl)C2(Cl)C3C(Cl)C=CC3C1(Cl)C2(Cl)Cl (centres undefined) [Heptachlor] | 6.11 µM | 5 µM | 5.7 | 5.98 | 5.24 | 4.13 | 4.03 | 3.97 | 3.44
18 | CCCCC(CC)COC(=O)c1ccc(C(=O)OCC(CC)CCCC)c(C(=O)OCC(CC)CCCC)c1 (centres undefined) [Tris(2-ethylhexyl)trimellitate] | > 200 µM | 200 µM | 5.91 | 5.93 | 5.94 | 5.81 | 5.93 | 5.87 | 5.53

Row | Compound | AC50 for larval growth inhibition [1] | lowest effective concentration [2] | mean nematode size ln(EXT) (ln) ([3]; 0.5 µM) | mean nematode size ln(EXT) (ln) ([3]; 1 µM) | mean nematode size ln(EXT) (ln) ([3]; 5 µM) | mean nematode size ln(EXT) (ln) ([3]; 10 µM) | mean nematode size ln(EXT) (ln) ([3]; 50 µM) | mean nematode size ln(EXT) (ln) ([3]; 100 µM) | mean nematode size ln(EXT) (ln) ([3]; 200 µM)
19 | CCCCCCCCCCCC[N+](C)(C)C [Dodecyl trimethyl ammonium chloride] | 199 µM | 100 µM | 5.76 | 6.02 | 5.88 | 5.9 | 5.76 | 5.65 | 4.53
20 | Oc1ccccc1-c1ccccc1 [2-Phenylphenol] | 179 µM | 200 µM | 5.84 | 5.73 | 5.68 | 5.99 | 6.05 | 5.96 | 5.13
21 | CC(=O)[O][Hg][c]1ccccc1 [Phenylmercuric acetate] | 1.02 µM | ≤ 0.5 µM | 5.43 | 5.07 | 4.25 | 3.93 | 4.09 | 4.09 | 3.02
22 | CNC(=O)Oc1cccc2c1OC(C)(C)O2 [Bendiocarb] | > 200 µM | 200 µM | 5.79 | 5.85 | 5.8 | 5.79 | 5.81 | 5.76 | 5.25
23 | CCC/C(=N\OCC)C1=C(O)CC(CC(C)SCC)CC1=O (centres undefined) [Sethoxydim] | 149 µM | 200 µM | 6.01 | 6.16 | 6.06 | 6 | 5.76 | 5.97 | 3.35
24 | CO/N=C(/C(=O)OC)c1ccccc1CO/N=C(\C)c1cccc(C(F)(F)F)c1 [Trifloxystrobin] | 90.8 µM | 100 µM | 5.88 | 5.87 | 5.71 | 5.82 | 5.92 | 4.16 | 3.43
25 | CC(C)(C)c1cc(C(C)(C)C)c(O)c(C(C)(C)C)c1 [2,4,6-Tris(tert-butyl)phenol] | > 200 µM | 50 µM | 5.84 | 5.9 | 5.94 | 5.7 | 5.58 | 5.4 | 4.67
26 | Cc1ccc(-c2cc(C(F)(F)F)nn2-c2ccc(S(N)(=O)=O)cc2)cc1 [Celecoxib] | 30.3 µM | 50 µM | 5.9 | 5.92 | 5.8 | 5.81 | 4.7 | 4.53 | 4.22
27 | Nc1ccc(Cc2ccc(N)cc2)cc1 [4,4'-Methylenedianiline] | > 200 µM | 200 µM | 5.98 | 5.73 | 5.91 | 5.78 | 5.87 | 5.92 | 5.53
28 | CC/C(=C(\c1ccccc1)c1ccc(OCCN(C)C)cc1)c1ccccc1 [Tamoxifen citrate salt] | 10.9 µM | 10 µM | 5.96 | 6 | 5.82 | 5.01 | 3.9 | 3.68 | 
29 | CC(C)OC(=O)Nc1cccc(Cl)c1 [Chlorpropham] | 60.7 µM | 100 µM | 5.75 | 5.77 | 5.9 | 5.95 | 5.82 | 4.79 | 4.32
30 | Cc1cc(SC2=C(O)C[C@@](CCc3ccc(N)cc3)(C(C)C)OC2=O)c(C(C)(C)C)cc1CO | 186 µM | 200 µM | 5.92 | 6.15 | 6.21 | 6.22 | 6.19 | 6.07 | 5.64
31 | CCCCCCCCCCCCO [1-Dodecanol] | 20.3 µM | 10 µM | 5.89 | 5.85 | 5.73 | 5.63 | 3.72 | 3.69 | 3.49
32 | O=c1c(-c2ccc(O)cc2)coc2cc(O)cc(O)c12 [Genistein] | > 200 µM | 200 µM | 5.88 | 5.89 | 5.92 | 5.85 | 5.89 | 5.89 | 5.53
33 | N#Cc1c[nH]cc1-c1cccc2c1OC(F)(F)O2 [Fludioxonil] | 101 µM | 100 µM | 6.15 | 6.03 | 6.08 | 6.01 | 6.06 | 5.27 | 4.42
34 | CCCCCCCCOC(=O)CCCCCCCCC(=O)OCCCCCCCC [Sebacic acid di-n-octyl ester] | 39.2 µM | 200 µM | 5.75 | 5.77 | 5.82 | 6.22 | 5.69 | 5.67 | 5.58
35 | CCCCCCCCN(C)C [N,N-Dimethyloctylamine] | > 200 µM | 200 µM | 5.85 | 5.83 | 5.81 | 5.79 | 5.85 | 5.88 | 5.65
